Experimental data from patent US8399512B2, “Biocompatible biodegradable fumagillin analog conjugates” (Mersana Therapeutics, Inc., priority 2007, dated 2013).

What follows are molecules tested on human umbilical vein endothelial cells (HUVECs) (assay: Inhibitory effect on HUVEC cell growth (MTS/PES colorimetry)). Conditions: Homo sapiens, 120 h, cultured 5 days, MTS/PES absorbance 490 nm.
Format: cell-based
Description: Using human umbilical vein endothelial cells (HUVECs), the effect of the fumagillin analog conjugates and the fumagillin analogs on cell growth was evaluated.
The HUVECs were added to M199 medium supplemented with 20% FBS, after which the cells were incubated at 37° C. under 5% CO2. 96-well plates were seeded at 5,000 cells/well in a total volume of 100 μL. The cells were left overnight to attach to the plate. Cells were subcultured a maximum of 15 times before being discarded.
To evaluate the inhibitory activity of the fumagillin conjugate or the fumagillin analog alone on the growth of HUVEC cells, the conjugate or fumagillin analog was dissolved in the required amount of 0.9% saline, vortexed briefly to wet and disperse the solids, followed by vortexing for a total of 30 min. […] The cells were treated with the conjugate solution or fumagillin analog solution at various concentrations ranging from 30 nM to 0.01 nM, and cultured for 5 days at 37° C.
Colorimetry was performed to determine the extent of cell growth by adding 20 μL of MTS/PES reagent to each well, incubation for 4 h at 37° C. followed by measuring the absorbance at 490 nm.
With `COC(=O)C12CCC(C(=O)O[C@@H]3CC[C@]4(CO4)[C@@H](C4(C)O[C@@H]4CC=C(C)C)[C@@H]3OC)(CC1)CC2` (some centres unmarked) [Compound 1] the IC50 was < 25 nM.
`CO[C@H]1[C@H](C2(C)O[C@@H]2CC=C(C)C)[C@]2(CC[C@H]1OC(=O)NC(=O)CCl)CO2` (some centres unmarked) [Compound 2] was tested, and the IC50 was < 25 nM.
`COC(=O)[C@@H](N)CSCC(=O)NC(=O)O[C@@H]1CC[C@]2(CO2)[C@@H](C2(C)O[C@@H]2CC=C(C)C)[C@@H]1OC` (some centres unmarked) [Compound 3] was tested, and the IC50 was < 25 nM.
For `CO[C@H]1[C@H](C2(C)O[C@@H]2CC=C(C)C)[C@]2(CC[C@H]1OC(=O)/C=C/c1ccc(O)cc1)CO2` (some centres unmarked) [Compound 4], the IC50 was > 30 nM.
With `CO[C@H]1[C@H](C2(C)O[C@@H]2CC=C(C)C)[C@]2(CC[C@H]1OC(=O)NCc1ccccc1)CO2` (some centres unmarked) [Compound 5] the IC50 was < 25 nM.
In the case of `CO[C@H]1[C@H](C2(C)O[C@@H]2CC=C(C)C)[C@]2(CC[C@H]1OC(=O)NCc1ccc(NC(C)=O)cc1)CO2` (some centres unmarked) [Compound 17], the IC50 is reported as < 25 nM.
With `CO[C@@H]1C(=O)CC[C@]2(CO2)[C@H]1C1(C)O[C@@H]1CC=C(C)C` (some centres unmarked) [Compound 20] the IC50 was < 25 nM.
`COc1cc(/C=C/C(=O)O[C@@H]2CC[C@]3(CO3)[C@@H](C3(C)O[C@@H]3CC=C(C)C)[C@@H]2OC)cc(OC)c1OC` (some centres unmarked) [Compound 21] was tested, and the IC50 was < 25 nM.
In the case of `CO[C@H]1[C@H](C2(C)O[C@@H]2CC=C(C)C)[C@]2(CC[C@H]1OC(=O)/C=C/C=C/C=C/C=C/C(=O)O)CO2` (some centres unmarked) [Compound 24], the IC50 is reported as < 25 nM.
`CO[C@H]1[C@H](C2(C)O[C@@H]2CC=C(C)C)[C@]2(CC[C@H]1NC(=O)NC(=O)CCl)CO2` (some centres unmarked) [Compound 28] was tested, and the IC50 was < 25 nM.
For `CCOC(=O)C1CCC(CNC(=O)O[C@@H]2CC[C@]3(CO3)[C@@H](C3(C)O[C@@H]3CC=C(C)C)[C@@H]2OC)CC1` (some centres unmarked) [Compound 29], the IC50 was < 25 nM.
For `CO[C@H]1[C@H](C2(C)O[C@@H]2CC=C(C)C)[C@]2(CC[C@H]1OC(=O)NC(=O)CSc1ccc(N)cc1)CO2` (some centres unmarked) [Compound 30], the IC50 was < 25 nM.
With `CO[C@H]1[C@H](C2(C)O[C@@H]2CC=C(C)C)[C@]2(CC[C@H]1OC(=O)NC(=O)CSc1ccc(C(=O)O)cc1)CO2` (some centres unmarked) [Compound 34] the IC50 was < 25 nM.
For `CO[C@H]1[C@H](C2(C)O[C@@H]2CC=C(C)C)[C@]2(CC[C@H]1OC(=O)/C=C/c1ccc(OCCN(C)C)cc1)CO2` (some centres unmarked) [Compound 36], the IC50 was < 25 nM.
With `COc1cc(/C=C/C(=O)N[C@@H]2CC[C@]3(CO3)[C@@H](C3(C)O[C@@H]3CC=C(C)C)[C@@H]2OC)cc(OC)c1OC` (some centres unmarked) [Compound 37] the IC50 was 25 to 100 nM.
`CO[C@H]1[C@H](C2(C)O[C@@H]2CC=C(C)C)[C@]2(CC[C@H]1NC(=O)C13CCC(C(=O)NCCCOC(=O)[C@H](C)N)(CC1)CC3)CO2` (some centres unmarked) [Compound 41] showed an IC50 of 100 to 300 nM.
`CO[C@H]1[C@H](C2(C)O[C@@H]2CC=C(C)C)[C@]2(CC[C@H]1NC(=O)C13CCC(C(=O)NCCCOC(=O)C4CCCN4)(CC1)CC3)CO2` (some centres unmarked) [Compound 42] was tested, and the IC50 was 100 to 300 nM.
With `COC(=O)C12CCC(C(=O)N[C@@H]3CC[C@]4(CO4)[C@@H](C4(C)O[C@@H]4CC=C(C)C)[C@@H]3OC)(CC1)CC2` (some centres unmarked) [Compound 43] the IC50 was < 25 nM.
With `CO[C@H]1[C@H](C2(C)O[C@@H]2CC=C(C)C)[C@]2(CC[C@H]1NC(=O)CSc1ccc(N)cc1)CO2` (some centres unmarked) [Compound 45] the IC50 was < 25 nM.
`COC(=O)c1ccc(C(=O)N[C@@H]2CC[C@]3(CO3)[C@@H](C3(C)O[C@@H]3CC=C(C)C)[C@@H]2OC)cc1` (some centres unmarked) [Compound 46] was tested, and the IC50 was < 25 nM.
With `CO[C@H]1[C@H](C2(C)O[C@@H]2CC=C(C)C)[C@]2(CC[C@H]1OC(=O)NS(=O)(=O)N1CCN(C(C)=O)CC1)CO2` (some centres unmarked) [Compound 47] the IC50 was < 25 nM.
In the case of `CO[C@H]1[C@H](C2(C)O[C@@H]2CC=C(C)C)[C@]2(CC[C@H]1NC(=O)c1ccc(C(=O)NCCCO)cc1)CO2` (some centres unmarked) [Compound 48], the IC50 is reported as < 25 nM.

Same assay, conditions: cultured 5 days, MTS/PES absorbance 490 nm
In the case of `COC(=O)[C@@H](N)CSCC(=O)NC(=O)O[C@@H]1CC[C@]2(CO2)[C@@H](C2(C)O[C@@H]2CC=C(C)C)[C@@H]1OC` (some centres unmarked) [Compound 14], the IC50 is reported as < 25 nM.
